# In patent US6683079B2, “3-(amino-or aminoalkyl) pyridinone derivatives and their use for the treatment of HIV related diseases” (Centre National de la Recherche Scientifique, priority 1998, dated 2004):
# System: HIV-1 strain IIIB
# Assay: Retrovirucidal effect on HIV-1 strain IIIB (Table 3)
# Assay type: cell-based
# Conditions: not given
# Description: (§1) HIV-1 viral suspensions were obtained by coculture of MT4 cells and H9 cells chronically infected by HIV-ILai isolate. 200 μl of a cell supernatant containing viral particles (HIV-ILai: 100 TCID50) were incubated at room temperature with various concentrations of different inhibitors. After 3 hours, virions were washed through 0.02 μm anopore membrane in 1.5 mL Vectaspin tube (Whatman) for 10 minutes at 5 000 g. Each of the three subsequent washes was performed in the same conditions after the viral concentrate was refilled with 500 μL of RPMI medium. Then, the viral concentrate was readjusted to the initial volume with RPMI plus 10% foetal calf serum (FCS). The residual infectivity was assayed on P4 cells as described by CHARNEAU et al. (1994, J. Mol. Biol., 241, 651-662). Briefly, P4 cells were plated using 100 μL of DMEM medium plus 10% FCS in 96 plate multi-wells at 20×10^5 cells per mL. After overnight incubation at 37° C., the supernatant was discarded and the viral preparation (200 μL) was added. One day later the wells were washed three times in PBS. Each well was refilled with 200 μL of a reaction buffer containing 50 mM Tris-HCl pH 8.5, 100 mM 2-mercaptoethanol, 0.05% Triton X-100 and 5 mM 4-methylumbelliferyl β-D-galactopyranoside (MUG). After 3 hours at 37° C., the level of the reaction was measured in a fluorescence microplate reader.
# (§2) The retrovirucidal effect of each pyridinone derivative listed in table 3 has been assayed according to the teachings of example 2, excepted that the anti-viral effect has been tested on the two following HIV-1 strains:
# a) HIV-1 strain IIIB (see example 2);
row,SMILES,HIV1 pIC50 (pIC50=−log IC50)
1,CCc1c(C)[nH]c(=O)c(N)c1Sc1cc(C)cc(C)c1 [Compound 1],"7,6999"

# Same assay, conditions: pIC50=-log IC50, IC50 in M
row,SMILES,HIV1 pIC50 strain IIIB
1,CCc1c(C)[nH]c(=O)c(N)c1Sc1cc(C)cc(C)c1 [Compound 1],7.699
2,CCc1c(C)[nH]c(=O)c(N)c1C(=O)c1cc(C)cc(C)c1 [Compound 2],6.612
3,CCc1c(C)[nH]c(=O)c(N(C)C)c1Cc1cc(C)cc(C)c1 [Compound 3],8.004
4,CCc1c(C)[nH]c(=O)c(NCc2cc(C)c(C)cc2OC)c1Cc1cc(C)cc(C)c1 [Compound 4],5.094
5,CCc1c(C)[nH]c(=O)c(N)c1Cc1cc(C)cc(C)c1 [Compound 5],6.261
6,CCc1c(C)[nH]c(=O)c(N)c1C(O)c1cc(C)cc(C)c1 (stereo not drawn) [Compound 6],5.795
7,CCc1c(C)[nH]c(=O)c(N)c1Cc1ccc2ccccc2c1 [Compound 7],<4
8,CCc1c(C)[nH]c(=O)c(N)c1Cc1ccc(C)cc1 [Compound 8],4.373
9,CCc1c(C)[nH]c(=O)c(N(C)C)c1Cc1ccc(Cl)cc1 [Compound 55],6.651
10,CCc1c(C)[nH]c(=O)c(N(C)C)c1Cc1nccn1C [Compound 88],<4
11,CCCCc1cc(Cc2cc(C)cc(C)c2)c(N)c(=O)[nH]1 [Compound 89],6.237
12,CCCCc1cc(Cc2cc(C)cc(C)c2)c(N(C)C)c(=O)[nH]1 [Compound 90],6.359
13,Cc1cccc(Cc2c3c([nH]c(=O)c2N)CCCC3)c1 [Compound 91],5.73
14,Cc1cccc(Cc2c3c([nH]c(=O)c2N(C)C)CCCC3)c1 [Compound 92],7.807
15,CCc1c(C)[nH]c(=O)c(N(C)C)c1C(=O)c1cccc(C)c1 [Compound 93],8.721
16,Cc1cccc(C(=O)c2c(C)c(C)[nH]c(=O)c2N)c1 [Compound 94],5.153
17,CCc1c(C)[nH]c(=O)c(N(CC)CC)c1C(=O)c1cccc(C)c1 [Compound 95],8.268
18,CCCc1cccc(Cc2c(CC)c(C)[nH]c(=O)c2N)c1 [Compound 103],5.747
19,Cc1cc(C)cc(Cc2c(Cl)c[nH]c(=O)c2N)c1 [Compound 105],4.943
20,Cc1cc(C)cc(Cc2c(Cl)c[nH]c(=O)c2N(C)C)c1 [Compound 106],7.063
21,CCc1[nH]c(=O)c(N(C)C)c(C(=O)c2cccc(C)c2)c1C [Compound 108],7.005
22,CCc1c(C)[nH]c(=O)c(N(C)C)c1Cc1cccc(CO)c1 [Compound 110],7.783

row,SMILES,HIV1 pIC50 strain IIIB
1,CCc1c(C)[nH]c(=O)c(N)c1C(=O)c1ccc2c(c1)OCCO2 [Compound 111],<4
2,CCc1c(C)[nH]c(=O)c(N(C)C)c1C(=O)c1ccc2c(c1)OCCO2 [Compound 112],6.394
3,CCc1c(C)[nH]c(=O)c(N)c1Cc1cccc2ccccc12 [Compound 113],5.273
4,CCc1c(C)[nH]c(=O)c(N(C)C)c1Cc1cccc2ccccc12 [Compound 116],6.627
5,Cc1cc(C)cc(Cc2c(C)c(C(C)C)[nH]c(=O)c2N)c1 [Compound 118],4.042
6,Cc1cc(C)cc(Cc2c(C)c(C(C)C)[nH]c(=O)c2N(C)C)c1 [Compound 119],6.114
7,CCc1c(C)[nH]c(=O)c(N)c1Cc1cccc(OC)c1 [Compound 120],5.033
8,CCc1c(C)[nH]c(=O)c(N(C)C)c1Cc1cccc(O)c1 [Compound 122],7.196
9,CCc1c(C)[nH]c(=O)c(N)c1C(=O)Cc1cccc(C)c1 [Compound 124],4.389
10,CCc1c(C)[nH]c(=O)c(N(C)C)c1C(=O)Cc1cccc(C)c1 [Compound 127],4.174
11,CCc1c(C)[nH]c(=O)c(N(C)C)c1C(=O)c1cccc(CO)c1 [Compound 128],7.848
12,Cc1cccc(Cc2c3c([nH]c(=O)c2N)CCC3)c1 [Compound 131],5.799
13,Cc1cccc(Cc2c3c([nH]c(=O)c2N(C)C)CCC3)c1 [Compound 132],7.863
14,CCc1c(C)[nH]c(=O)c(N(C)C)c1CN(C)c1cc(C)cc(C)c1 [Compound 133],4.94
15,CCc1c(C)[nH]c(=O)c(N)c1Cc1ccc2c(c1)OCCO2 [Compound 134],4.056
16,CCc1c(C)[nH]c(=O)c(N(C)C)c1Cc1ccc2c(c1)OCCO2 [Compound 135],6.688
17,CCc1c(C)[nH]c(=S)c(N(C)C)c1Cc1cc(C)cc(C)c1 [Compound 137],7.658
18,CCc1c(C)[nH]c(=O)c(NC)c1Cc1cccc(C(F)(F)F)c1 [Compound 139],6.908
19,CCc1c(C)[nH]c(=O)c(N)c1C(=O)c1cccc(C(F)(F)F)c1 [Compound 140],5.766
20,CCc1c(C)[nH]c(=O)c(N)c1Cc1ccc2c(c1)OCO2 [Compound 141],4.642
21,Cc1cccc(C(=O)c2c3c([nH]c(=O)c2N)CCC3)c1 [Compound 142],4.889
22,CCc1c(C)[nH]c(=O)c(N(C)C)c1C(=O)c1cccc(COc2ccccc2)c1 [Compound 143],7.421

row,SMILES,HIV1 pIC50 strain IIIB
1,CCc1c(C)[nH]c(=O)c(N(C)CCOCc2ccccc2)c1Cc1cccc(C)c1 [Compound 144],6.446
2,CCc1c(C)[nH]c(=O)c(N(C)C)c1Cc1ccc2c(c1)OCO2 [Compound 147],7.721
3,Cc1cccc(C(=O)c2c3c([nH]c(=O)c2N(C)C)CCC3)c1 [Compound 148],7.863
4,CCc1c(C)[nH]c(=O)c(N)c1C(=O)c1ccc2c(c1)OCO2 [Compound 150],4.881
5,CCc1c(C)[nH]c(=O)c(N(C)C)c1C(=O)c1ccc2c(c1)OCO2 [Compound 151],7.845
6,CCc1c(Cc2cc(C)cc(C)c2)c(N(C)C)c(=O)n(-c2ccccc2)c1C [Compound 152],4.21
7,CCc1c(Cc2cc(C)cc(C)c2)c(N(C)C)c(=O)n(N)c1C [Compound 153],6.749
8,CCc1c(C)[nH]c(=O)c(N(C)CCC(C)C)c1Cc1cccc(C)c1 [Compound 155],7.514
9,CCc1c(C)[nH]c(=O)c(N)c1Cc1ccc(OC)c(C)c1 [Compound 156],4.934
10,CCc1c(C)[nH]c(=O)c(N(C)C)c1Cc1ccc(OC)c(C)c1 [Compound 157],6.413
11,CCc1c(C)[nH]c(=O)c(N)c1Sc1cccc(C)c1 [Compound 159],7.011
12,CCc1c(C)[nH]c(=O)c(N(CCOC)CCOC)c1Cc1cccc(C)c1 [Compound 180],5.988
13,CCOc1cccc(Cc2c(CC)c(C)[nH]c(=O)c2N(C)C)c1 [Compound 181],7.928
14,CCc1c(C)[nH]c(=O)c(N)c1C(=O)c1cc(F)cc(C(F)(F)F)c1 [Compound 182],5.933
15,CCc1c(C)[nH]c(=O)c(N(C)C)c1C(=O)c1cc(F)cc(C(F)(F)F)c1 [Compound 183],8.481
16,CCc1c(C)[nH]c(=O)c(N)c1C(=O)c1cc(Br)cs1 [Compound 186],5.781
17,CCc1c(C)[nH]c(=O)c(N)c1Sc1cccc(Br)c1 [Compound 188],7.063
18,CCc1c(C)[nH]c(=O)c(N)c1Cc1cc(Cl)cc(Cl)c1 [Compound 189],6.401
19,CCc1c(C)[nH]c(=O)c(N)c1C(=O)c1cc(Cl)cc(Cl)c1 [Compound 190],7.757
20,CCc1c(C)[nH]c(=O)c(N)c1C(=O)c1ccc(Br)s1 [Compound 194],4.665
21,CCc1c(C)[nH]c(=O)c(N(C)C)c1C(=O)c1cccc(-c2ccccc2)c1 [Compound 196],6.411

# Same assay, conditions: retrovirucidal effect, pIC50=-log IC50 (M)
row,SMILES,HIV1 pIC50 strain IIIB
1,CCc1c(C)[nH]c(=O)c(N)c1Oc1cc(C)cc(C)c1 [Compound 197],7.307
2,Cc1c[nH]c(=O)c(N)c1SCc1ccccc1 [Compound 198],4.457
3,CCc1c(C)[nH]c(=O)c(N)c1Cc1ccccc1Br [Compound 202],5.715
4,CCc1c(C)[nH]c(=O)c(N(C)C)c1Cc1ccccc1Br [Compound 203],8.161

# System: HIV-1 strain 103 N
# Assay: Retrovirucidal effect on HIV-1 strain 103 N (Table 3)
# Assay type: cell-based
# Conditions: HIV-1 strain 103N (RT Lys-103 to Asn mutant); pIC50=-log IC50, IC50 in M
# Description: as §1, §2
# b) HIV-1 strain 103 N which is a mutant strain bearing a point mutation in the reverse transcriptase gene leading to an enzyme wherein the initial Lys-103 residue is replaced for a Asn residue.
# The HIV-1 103 N strain has also been described by SAHLBERG et al.,(1998, Antiviral Res., 37 (3): ASS) and BALZARiNI et al. (1996, Antimicrobial Agents and Chemotherapy, 40 (6): 1454-1466).
row,SMILES,HIV1 pIC50 strain 103N
1,CCc1c(C)[nH]c(=O)c(N)c1Sc1cc(C)cc(C)c1 [Compound 1],6.671
2,CCc1c(C)[nH]c(=O)c(N)c1C(=O)c1cc(C)cc(C)c1 [Compound 2],6.64
3,CCc1c(C)[nH]c(=O)c(N(C)C)c1Cc1cc(C)cc(C)c1 [Compound 3],7.438
4,CCc1c(C)[nH]c(=O)c(NCc2cc(C)c(C)cc2OC)c1Cc1cc(C)cc(C)c1 [Compound 4],<4
5,CCc1c(C)[nH]c(=O)c(N)c1Cc1cc(C)cc(C)c1 [Compound 5],5.636
6,CCc1c(C)[nH]c(=O)c(N)c1C(O)c1cc(C)cc(C)c1 (stereo not drawn) [Compound 6],5.026
7,CCc1c(C)[nH]c(=O)c(N)c1Cc1ccc2ccccc2c1 [Compound 7],<4
8,CCc1c(C)[nH]c(=O)c(N)c1Cc1ccc(C)cc1 [Compound 8],4.39
